Experimental data taken from PubChem BioAssay AID330 (DTP/NCI, 2004).
Several values for one entry are separate records, joined by “and”; a condition that tells them apart may be missing. Equal values may be shown once. Inconclusive results and toxic doses are left out.

Test system: P388 leukemia ip, CD2F1 mice, survival T/C
Assay: NCI In Vivo Anticancer Drug Screen. Data for tumor model P388 Leukemia (intraperitoneal) in CD2F1 (CDF1) mice
Settings: endpoint: median survival time, higher = longer survival
Summary of the method: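 Mice carrying the transplanted tumor received test compound or vehicle. Survival was recorded in each group, and the value is the treated-group measurement divided by that of the vehicle-treated control group.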

[1] = dose: 60.0 mg/kg/injection, schedule: Q01DX005 (ip), vehicle: saline with Tween-80
[2] = dose: 120.0 mg/kg/injection, schedule: Q01DX005 (ip), vehicle: saline with Tween-80
[3] = dose: 50.0 mg/kg/injection, schedule: Q01DX005 (ip), vehicle: saline with Tween-80
[4] = dose: 100.0 mg/kg/injection, schedule: Q01DX005 (ip), vehicle: saline with Tween-80
[5] = dose: 200.0 mg/kg/injection, schedule: Q01DX005 (ip), vehicle: saline with Tween-80
[6] = dose: 50.0 mg/kg/injection, schedule: Q01DX005 (ip), vehicle: Klucel (hydroxypropylcellulose) (HPC)
[7] = dose: 100.0 mg/kg/injection, schedule: Q01DX005 (ip), vehicle: Klucel (hydroxypropylcellulose) (HPC)
[8] = dose: 60.0 mg/kg/injection, schedule: Q01DX005 (ip), vehicle: Klucel (hydroxypropylcellulose) (HPC)
[9] = dose: 120.0 mg/kg/injection, schedule: Q01DX005 (ip), vehicle: Klucel (hydroxypropylcellulose) (HPC)
[10] = dose: 240.0 mg/kg/injection, schedule: Q01DX005 (ip), vehicle: Klucel (hydroxypropylcellulose) (HPC)
[11] = dose: 25.0 mg/kg/injection, schedule: Q01DX009 (ip), vehicle: saline
[12] = dose: 12.5 mg/kg/injection, schedule: Q01DX009 (ip), vehicle: saline with Tween-80
[13] = dose: 25.0 mg/kg/injection, schedule: Q01DX009 (ip), vehicle: saline with Tween-80
[14] = dose: 50.0 mg/kg/injection, schedule: Q01DX009 (ip), vehicle: saline with Tween-80
[15] = dose: 6.25 mg/kg/injection, schedule: Q01DX009 (ip), vehicle: saline
[16] = dose: 100.0 mg/kg/injection, schedule: Q01DX009 (ip), vehicle: saline with Tween-80
[17] = dose: 100.0 mg/kg/injection, schedule: Q01DX001 (ip), vehicle: saline with Tween-80
[18] = dose: 200.0 mg/kg/injection, schedule: Q01DX001 (ip), vehicle: saline with Tween-80
[19] = dose: 400.0 mg/kg/injection, schedule: Q01DX001 (ip), vehicle: saline with Tween-80
[20] = dose: 100.0 mg/kg/injection, schedule: Q04DX003 (ip), vehicle: saline with Tween-80
[21] = dose: 50.0 mg/kg/injection, schedule: Q01DX009 (ip), vehicle: Klucel (hydroxypropylcellulose) (HPC)
[22] = dose: 100.0 mg/kg/injection, schedule: Q01DX009 (ip), vehicle: Klucel (hydroxypropylcellulose) (HPC)

For CN(Cc1cnc2nc(N[Si](C)(C)C)nc(N[Si](C)(C)C)c2n1)c1ccc(C(=O)NC(CCC(=O)O[Si](C)(C)C)C(=O)O[Si](C)(C)C)cc1 (stereo unspecified), the T/C (dose: 0.63 mg/kg/injection, schedule: Q01DX009 (ip), vehicle: saline) was 165 % of control, the T/C (dose: 1.25 mg/kg/injection, schedule: Q01DX009 (ip), vehicle: saline) was 191 % of control and the T/C (dose: 1.9 mg/kg/injection, schedule: Q04DX003 (ip), vehicle: saline) was 159 % of control. The T/C (dose: 2.5 mg/kg/injection, schedule: Q01DX009 (ip), vehicle: saline) was 226 % of control, the T/C (dose: 3.8 mg/kg/injection, schedule: Q04DX003 (ip), vehicle: saline) was 177 % of control and the T/C (dose: 7.5 mg/kg/injection, schedule: Q04DX003 (ip), vehicle: saline) was 195 % of control. The T/C (dose: 15.0 mg/kg/injection, schedule: Q04DX003 (ip), vehicle: saline) was 218 % of control, the T/C (dose: 30.0 mg/kg/injection, schedule: Q04DX003 (ip), vehicle: saline) was 236 % of control and the T/C (dose: 60.0 mg/kg/injection, schedule: Q04DX003 (ip), vehicle: saline) was 109 % of control.
CC(=O)Nc1ccc(S(=O)(=O)Nc2c(-c3ccccc3)[nH]c(C)c2C(C)=O)cc1 was tested, and the T/C [1] was 102 % of control, the T/C [2] was 102 % of control and the T/C (dose: 240.0 mg/kg/injection, schedule: Q01DX005 (ip), vehicle: saline with Tween-80) was 98 % of control.
With COc1ccc2c(c1)OCCCO/N=C(\c1ccccc1)c1ccc(OC)cc1OCCCO/N=C/2c1ccccc1 (tested in a mixture with another compound) the T/C [3] was 103 % of control, the T/C [4] was 103 % of control and the T/C [5] was 98 % of control.
For O=CNc1cccnc1C1OCCO1, the T/C [6] was 98 % of control, the T/C [7] was 102 % of control and the T/C (dose: 200.0 mg/kg/injection, schedule: Q01DX005 (ip), vehicle: Klucel (hydroxypropylcellulose) (HPC)) was 102 % of control.
In the case of COc1ccc2c(C)cc(NNC(N)=S)nc2c1, the T/C [6] was 104 % of control and 107 % of control and the T/C [7] was 111 % of control and 120 % of control.
With O=C(O)CC(O)C(F)(F)C(F)(F)C(F)(F)F (stereo unspecified) the T/C (dose: 18.75 mg/kg/injection, schedule: Q04DX003 (ip), vehicle: saline) was 100 % of control, the T/C (dose: 37.5 mg/kg/injection, schedule: Q04DX003 (ip), vehicle: saline) was 95 % of control and the T/C (dose: 75.0 mg/kg/injection, schedule: Q04DX003 (ip), vehicle: saline) was 109 % of control.
COc1cc(C2c3cc4c(cc3OC3(O)C=C(C)OC(=O)C23)OCO4)cc(OC)c1OC (stereo unspecified) was tested, and the T/C [8] was 94 % of control, the T/C [9] was 94 % of control and the T/C [10] was 110 % of control.
For CCCCCCCCCCN(CCCCCCCCCC)C(=O)C(C)OC(C)=O (stereo unspecified), the T/C [3] was 98 % of control, the T/C [4] was 101 % of control and the T/C [5] was 104 % of control.
In the case of O=C(O)C(O)C(O)C1[O][Sb][O]C1CO (stereo unspecified), the T/C [3] was 98 % of control, the T/C [4] was 96 % of control and the T/C [5] was 96 % of control.
With CCn1c(O)c(N=NC(=S)SCc2ccccc2)c2ccccc21 the T/C (dose: 1.56 mg/kg/injection, schedule: Q01DX009 (ip), vehicle: suspension in saline) was 97 % of control, the T/C (dose: 3.12 mg/kg/injection, schedule: Q01DX009 (ip), vehicle: suspension in saline) was 101 % of control and the T/C (dose: 6.25 mg/kg/injection, schedule: Q01DX009 (ip), vehicle: suspension in saline) was 87 % of control and 97 % of control. The T/C [11] was 94 % of control.
For COc1ccc2c(c1)OCCN(C)OC2c1ccccc1 (stereo unspecified), the T/C [3] was 96 % of control and the T/C [4] was 95 % of control.
In the case of Nc1nc(Br)c2ncn(C3OC(CO)C(O)C3O)c2n1 (stereo unspecified), the T/C [3] was 101 % of control, the T/C [4] was 101 % of control and the T/C [5] was 94 % of control.
In the case of Cc1ccc(-c2c3c(c(-c4ccc(C)cc4)c(-c4ccccc4)c2-c2ccccc2)-c2ccccc2C3)cc1, the T/C [12] was 98 % of control, the T/C [13] was 98 % of control and the T/C [14] was 99 % of control and 89 % of control.
With NCCc1cc2ccccc2c2ccccc12 the T/C (dose: 12.5 mg/kg/injection, schedule: Q01DX005 (ip), vehicle: Klucel (hydroxypropylcellulose) (HPC)) was 99 % of control, the T/C (dose: 25.0 mg/kg/injection, schedule: Q01DX005 (ip), vehicle: Klucel (hydroxypropylcellulose) (HPC)) was 99 % of control and the T/C [6] was 99 % of control and 95 % of control.
For [CH3][Sn]([CH3])([Cl])[S]CCN, the T/C (dose: 0.78 mg/kg/injection, schedule: Q01DX009 (ip), vehicle: saline) was 99 % of control, the T/C (dose: 1.56 mg/kg/injection, schedule: Q01DX009 (ip), vehicle: saline) was 105 % of control and the T/C (dose: 3.12 mg/kg/injection, schedule: Q01DX009 (ip), vehicle: saline) was 123 % of control. For the same molecule, the T/C [15] was 120 % of control.
In the case of C=CCN(CC=C)C(N)=Nc1ccc(Cl)cc1, the T/C [15] was 100 % of control, the T/C (dose: 12.5 mg/kg/injection, schedule: Q01DX009 (ip), vehicle: saline) was 94 % of control and the T/C [11] was 97 % of control.
For CCN(CC)C(=O)CSc1ccc(Cl)nn1, the T/C [14] was 97 % of control, the T/C [16] was 98 % of control and the T/C (dose: 200.0 mg/kg/injection, schedule: Q01DX009 (ip), vehicle: saline with Tween-80) was 94 % of control.
For NC1=C(O)C(=O)C(c2ccccn2)O1 (stereo unspecified), the T/C (dose: 25.0 mg/kg/injection, schedule: Q01DX001 (ip), vehicle: other) was 105 % of control, the T/C (dose: 50.0 mg/kg/injection, schedule: Q01DX001 (ip), vehicle: other) was 119 % of control and the T/C (dose: 100.0 mg/kg/injection, schedule: Q01DX001 (ip), vehicle: other) was 116 % of control.
In the case of O=C(Cn1nnc2ccccc21)N1CCN(c2ccccc2)CC1, the T/C [1] was 90 % of control and the T/C [2] was 87 % of control.
CC1C(=O)SCC1(O)c1ccccc1 (stereo unspecified) was tested, and the T/C (dose: 100.0 mg/kg/injection, schedule: Q04DX002 (ip), vehicle: Klucel (hydroxypropylcellulose) (HPC)) was 102 % of control, the T/C (dose: 200.0 mg/kg/injection, schedule: Q04DX002 (ip), vehicle: Klucel (hydroxypropylcellulose) (HPC)) was 103 % of control and the T/C (dose: 400.0 mg/kg/injection, schedule: Q04DX002 (ip), vehicle: Klucel (hydroxypropylcellulose) (HPC)) was 107 % of control.
Brc1ccc2c(ccc3c2nnc2ncnn23)c1 was tested, and the T/C [8] was 102 % of control, the T/C [9] was 93 % of control and the T/C [10] was 86 % of control.
In the case of CN(C)CCP(=O)(O)O, the T/C [17] was 95 % of control, the T/C [18] was 100 % of control and the T/C [19] was 100 % of control.
c1nc(NCCCN2CCOCC2)c2c3c(sc2n1)CCCC3 was tested, and the T/C [3] was 109 % of control, the T/C [4] was 101 % of control and the T/C [5] was 100 % of control.
CCN(CC)CCCC(C)NCC(O)c1cc(-c2ccc(Cl)cc2)nc2ccccc12 (stereo unspecified) was tested, and the T/C [3] was 107 % of control and the T/C [4] was 112 % of control.
With CCOC(=O)/C(=C/C(C#N)=C/N(C)C)CC the T/C (dose: 50.0 mg/kg/injection, schedule: Q04DX003 (ip), vehicle: saline with Tween-80) was 104 % of control, the T/C [20] was 95 % of control and the T/C (dose: 200.0 mg/kg/injection, schedule: Q04DX003 (ip), vehicle: saline with Tween-80) was 109 % of control.
C=C(C)C1CC2(C)C(C)CC(O)CC2C(OC(=O)C=C(C)C)C1O (stereo unspecified) was tested, and the T/C (dose: 25.0 mg/kg/injection, schedule: Q01DX009 (ip), vehicle: Klucel (hydroxypropylcellulose) (HPC)) was 93 % of control, the T/C [21] was 96 % of control and the T/C [22] was 97 % of control.
With COc1cc(/C=N/Nc2ccc([N+](=O)[O-])cc2)cc(OC)c1OC the T/C [20] was 95 % of control and the T/C (dose: 400.0 mg/kg/injection, schedule: Q04DX003 (ip), vehicle: saline with Tween-80) was 87 % of control.
O=C(O)c1ccc(SSc2ccc(C(=O)O)cc2)cc1 was tested, and the T/C [12] was 97 % of control, the T/C [13] was 106 % of control and the T/C [14] was 103 % of control. For the same molecule, the T/C [16] was 111 % of control.
CC1=C(C)[CH2][Ge]([CH3])([CH3])[CH2]1 was tested, and the T/C (dose: 60.0 mg/kg/injection, schedule: Q01DX005 (ip), vehicle: saline) was 98 % of control, the T/C (dose: 120.0 mg/kg/injection, schedule: Q01DX005 (ip), vehicle: saline) was 104 % of control and the T/C (dose: 240.0 mg/kg/injection, schedule: Q01DX005 (ip), vehicle: saline) was 97 % of control.
CCN1CC[N+](CC)=C1C(=S)[S-] was tested, and the T/C [17] was 100 % of control, the T/C [18] was 104 % of control and the T/C [19] was 100 % of control.
In the case of NC1=NC2C(Cl)=CC=CC2S1 (stereo unspecified), the T/C [21] was 109 % of control and the T/C [22] was 107 % of control.
